By EC50 is commonly meant the concentration at which the effect is half-maximal. A low value points to higher potency in that assay.

This assay addresses T1, human toll like receptor 8 (hTLR8) (Homo sapiens, UniProt Q9NR97).
T1 construct: host or cells: HEK293 (HEK-Blue hTLR8)
T1 sequence (Q9NR97 27-1041): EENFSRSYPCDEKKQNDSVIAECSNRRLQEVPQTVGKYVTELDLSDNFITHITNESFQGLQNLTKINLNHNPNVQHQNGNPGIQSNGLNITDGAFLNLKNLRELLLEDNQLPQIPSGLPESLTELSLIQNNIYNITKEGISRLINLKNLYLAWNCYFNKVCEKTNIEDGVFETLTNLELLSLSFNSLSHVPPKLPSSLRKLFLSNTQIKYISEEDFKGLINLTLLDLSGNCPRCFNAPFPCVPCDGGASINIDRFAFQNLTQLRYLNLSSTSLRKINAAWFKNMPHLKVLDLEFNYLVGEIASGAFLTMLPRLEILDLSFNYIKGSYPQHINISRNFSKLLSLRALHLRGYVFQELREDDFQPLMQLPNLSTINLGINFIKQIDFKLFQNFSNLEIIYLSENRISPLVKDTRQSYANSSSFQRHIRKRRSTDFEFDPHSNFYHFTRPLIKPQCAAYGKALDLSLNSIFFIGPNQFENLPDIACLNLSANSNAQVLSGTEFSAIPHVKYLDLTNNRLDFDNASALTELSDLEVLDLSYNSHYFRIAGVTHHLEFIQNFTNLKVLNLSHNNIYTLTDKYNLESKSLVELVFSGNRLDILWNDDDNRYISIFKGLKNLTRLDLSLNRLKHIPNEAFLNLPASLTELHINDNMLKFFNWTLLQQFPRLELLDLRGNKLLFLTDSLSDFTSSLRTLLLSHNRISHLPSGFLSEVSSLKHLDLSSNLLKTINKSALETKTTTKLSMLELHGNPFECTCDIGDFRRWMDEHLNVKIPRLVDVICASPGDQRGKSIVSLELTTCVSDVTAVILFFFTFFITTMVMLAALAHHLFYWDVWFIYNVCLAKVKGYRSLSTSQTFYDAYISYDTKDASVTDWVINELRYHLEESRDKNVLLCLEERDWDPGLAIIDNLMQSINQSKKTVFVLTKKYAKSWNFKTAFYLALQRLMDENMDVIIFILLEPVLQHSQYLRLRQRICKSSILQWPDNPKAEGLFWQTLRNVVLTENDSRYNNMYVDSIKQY
Description: hTLR8 cell functional assay (HEK-Blue hTLR8 SEAP reporter). The assay is classed as cell-based. To be noted: HEK293 cells stably overexpressing hTLR8, SEAP reporter; geometric mean when tested more than once. As for the experimental part:
The Examples described were tested for biological activity in functional cellular assays using HEK293 cells stably overexpressing human TLR7 or TLR8. The assays tested for the ability of each Example to stimulate secretion of interferon alpha (IFNα) in human primary blood mono nuclear cells (PBMC).
To determine the ability of each Example to activate the human toll like receptor 7 (hTLR7) or human toll like receptor 8 (hTLR8), cell-based reporter systems were utilized. HEK293 cells stably overexpressing either hTLR7 or hTLR8 along with a reporter gene containing an optimized secreted embryonic alkaline phosphatase gene (SEAP), under the control of the IFN-b minimal promoter fused to five NF-κB and AP-1-binding sites, were obtained from Invivogen (HEK-Blue™ hTLR7, cat #Hkb-ht1r7; HEK-Blue™ hTLR8, cat #Hkb-ht1r8). Stimulation of hTLR7 or hTLR8 in these cells activates NF-κB and AP-1 and induces the production of SEAP which can be quantified using an alkaline phosphatase detection reagent.
Cells were maintained in Dulbecco's Modified Eagle Media (DMEM) (containing Fetal Bovine Serum (FBS) heat inactivated (10%), Glutamax (2 mM), Penicillin/Streptomycin, Blasticidin (10 μg/ml), Zeocin (100 μg/ml) and Normocin (100 μg/ml)). On day one of the assay, Examples were prepared using 11-point half-log serial dilutions from a 10mM DMSO stock solution and 50 nl was spotted into 384-well Viewplates (PerkinElmer, cat #6007480). Positive control TLR7/8 agonist and negative control (DMSO, no Example) were also spotted within the assay plate and were used to determine percent effect during the analysis process. After resuspension in DMEM assay media containing FBS heat inactivated (10%), Glutamax (2 mM) and Penicillin/Streptomycin, 10,000 cells/20 μl/well were added to previously prepared plates. Plates were incubated overnight (16-20 hrs) at 37° C. in a 5% CO2 environment. Prewetted Microclime lids (Labcyte, LLS-0310) were used to prevent evaporation. On day two of the assay, QUANTI-Blue™ detection reagent was prepared by reconstituting QUANTI-Blue™ powder (InvivoGen, Rep-qb1) with 100 ml of sterile water and allowed to equilibrate to 37° C. for 15 minutes. 20 μl of QUANTI-Blue™ detection reagent was added to each well and plates were incubated at room temperature for 180 min. At the end of the incubation, plates were read on an Envision (Perkin Elmer) plate reader capturing absorbance at 650 nm.
Using Positive (TLR7/8 agonist) and Negative (DMSO) controls, the percent (%) effect was calculated for each Example using the following equation: effect=100−[100*{(Example−Positive Control)/(Negative Control−Positive Control)}]
The % effect at each concentration of each Example was calculated utilizing the ABase software suite (IBDS) and was relative to the amount of SEAP produced in the positive and negative control wells contained within each assay plate. The concentrations and % effect values for each Example were fit using a 4-parameter logistic model in ABase and the concentration of each Example that produced 50% response (EC50) was calculated.

For `CCOCc1nc2c(N)nc(C)c(C)c2n1CC(C)(CO)COC` (single isomer, unassigned) [Example 6, 3-(4-amino-2-(ethoxymethyl)-6,7-dimethyl-1H-imidazo[4,5-c]pyridin-1-yl)-2-(methoxymethyl)-2-methylpropan-1-ol], the EC50 turned out to be 6.4 µM. As for `CCOCc1nc2c(N)nc(C)c(C)c2n1CC(C)(CO)COC` (single isomer, unassigned) [Example 7, 3-(4-amino-2-(ethoxymethyl)-6,7-dimethyl-1H-imidazo[4,5-c]pyridin-1-yl)-2-(methoxymethyl)-2-methylpropan-1-ol], it took 16.5 µM to reach a half-maximal effect (EC50).

Molecule `CCOCc1nc2c(N)nc(C)c(C)c2n1CC(CO)CO` [Example 1, 2-((4-amino-2-(ethoxymethyl)-6,7-dimethyl-1H-imidazo[4,5-c]pyridin-1-yl)methyl)propane-1,3-diol] came in with an EC50 of 2.55 µM. In the case of `CCOCc1nc2c(N)nc(C)c(C)c2n1CC(C)(CO)CO` [Example 2, 2-((4-amino-2-(ethoxymethyl)-6,7-dimethyl-1H-imidazo[4,5-c]pyridin-1-yl)methyl)-2-methylpropane-1,3-diol] it was 0.811 µM; in that of `CCOCc1nc2c(N)nc3ccccc3c2n1CC(C)(CO)CO` [Example 3, 2-((4-amino-2-(ethoxymethyl)-1H-imidazo[4,5-c]quinolin-1-yl)methyl)-2-methylpropane-1,3-diol], 0.194 µM.

Regarding `Cc1nc(N)c2nc(CC(F)(F)F)n(CC(C)(CO)CO)c2c1C` [Example 8, 2-((4-amino-6,7-dimethyl-2-(2,2,2-trifluoroethyl)-1H-imidazo[4,5-c]pyridin-1-yl)methyl)-2-methylpropane-1,3-diol], the EC50 amounted to 8.02 µM. Consider `CCOCc1nc2c(N)nc(C)c(C)c2n1CC(CC)(CO)CO` [Example 9, 2-((4-amino-2-(ethoxymethyl)-6,7-dimethyl-1H-imidazo[4,5-c]pyridin-1-yl)methyl)-2-ethylpropane-1,3-diol], for which the EC50 amounted to 1.44 µM. Against the preceding molecule, the EC50 is about 5.6-fold lower. Molecule `CCCCc1nc2c(N)nc3ccccc3c2n1CC(C)(CO)CO` [Example 10, 2-((4-amino-2-butyl-1H-imidazo[4,5-c]quinolin-1-yl)methyl)-2-methylpropane-1,3-diol] yielded an EC50 of 0.092 µM. In the case of `CCCCc1nc2c(N)nc3c(c2n1CC(C)(CO)CO)CCCC3` [Example 13, 2-((4-amino-2-butyl-6,7,8,9-tetrahydro-1H-imidazo[4,5-c]quinolin-1-yl)methyl)-2-methylpropane-1,3-diol] it was 0.104 µM; in that of `CCCCc1nc2c(N)nc3c(c2n1CC(C)(CO)CO)CCC3` [Example 14, 2-((4-amino-2-butyl-7,8-dihydrocyclopenta[b]imidazo[4,5-d]pyridin-1(6H)-yl)methyl)-2-methylpropane-1,3-diol], 0.247 µM; in that of `CCc1nc2c(N)nc3ccccc3c2n1CC(C)(CO)CO` [Example 15, 2-((4-amino-2-ethyl-1H-imidazo[4,5-c]quinolin-1-yl)methyl)-2-methylpropane-1,3-diol], 0.613 µM. In the case of `CCCc1nc2c(N)nc3ccccc3c2n1CC(C)(CO)CO` [Example 16, 2-((4-amino-2-propyl-1H-imidazo[4,5-c]quinolin-1-yl)methyl)-2-methylpropane-1,3-diol] it was 0.325 µM.
